For experiment [1], the system named is MCF-7 breast adenocarcinoma cells. The experiment is described as follows: Cancer cell proliferation assay, single agent (cell viability). The conditions noted are these: Homo sapiens, MCF7, Table 4; Rb positive; treatment 144 Hr with medium change at 72 Hr; Cell Titer-Glo or resazurin. Type of experiment: cell-based. In short, it runs like this: (§1)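 Viability read by resazurin or CellTiter-Glo after 24 h treatment (BT-549) or 144 h with a 72 h medium change (MCF-7, DU4475). Compounds tested at 7–9 concentrations, e.g. 1.1 nM–10 μM, added the day after seeding; IC50 by nonlinear sigmoidal regression.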
(In ATP-based viability assays light output follows the ATP content of the culture.)

In experiment [2] the test system is DU4475 breast carcinoma cells. The description is as above. Conditions: Homo sapiens, DU-4475; Table 4; Rb negative; treatment 144 Hr with medium change at 72 Hr; Cell Titer-Glo or resazurin. Format: cell-based. In outline: as §1
In another experiment the target is T1, CDK4 (Homo sapiens, UniProt P11802).
T1 construct: purchased Invitrogen PR8064A
T1 sequence (P11802 whole entry): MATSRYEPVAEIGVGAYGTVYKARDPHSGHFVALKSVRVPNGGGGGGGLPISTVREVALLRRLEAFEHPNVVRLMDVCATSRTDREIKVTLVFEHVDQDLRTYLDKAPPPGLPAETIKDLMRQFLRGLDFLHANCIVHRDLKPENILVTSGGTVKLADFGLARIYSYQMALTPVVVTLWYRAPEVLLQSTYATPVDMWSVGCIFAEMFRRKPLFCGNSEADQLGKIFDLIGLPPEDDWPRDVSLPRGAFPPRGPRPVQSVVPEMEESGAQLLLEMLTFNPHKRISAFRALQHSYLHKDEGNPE
T1 sequence (P24385 whole entry partner): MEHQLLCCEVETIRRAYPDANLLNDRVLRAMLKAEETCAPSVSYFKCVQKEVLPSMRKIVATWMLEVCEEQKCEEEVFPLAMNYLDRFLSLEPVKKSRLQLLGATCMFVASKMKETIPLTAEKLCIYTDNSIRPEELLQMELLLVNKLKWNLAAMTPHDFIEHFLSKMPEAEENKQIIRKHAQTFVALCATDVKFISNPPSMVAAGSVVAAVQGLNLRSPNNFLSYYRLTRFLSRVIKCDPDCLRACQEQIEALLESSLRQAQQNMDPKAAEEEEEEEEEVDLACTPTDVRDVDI
Description: In vitro kinase inhibition IC50, luminescence (ADP Glo), retinoblastoma substrate. Format: biochemical. The conditions noted are these: read-out: CDK4/D1 IC50. In short, it runs like this:
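Inhibition of CDK4 was quantified by ADP Glo luminescence with retinoblastoma as substrate. Reactions held 5 nM kinase, 1 μM retinoblastoma and 25 μM ATP and ran 2H at room temperature. A Synergy Neo reader took signals 15 min and 45 min after detection reagent, and percent inhibition was fitted to a four-parameter logistic model in XLfit to obtain IC50.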
(In general: ADP-Glo turns the ADP formed in a reaction into a luminescent signal.)

The next experiment concerns the target T2, CDK6 (Homo sapiens, UniProt Q00534).
T2 construct: purchased Invitrogen PR8422B
The description is as above. Type of experiment: biochemical. The conditions noted are these: read-out: CDK6/D1 IC50. In short, it runs like this: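 IC50 derived by four-parameter logistic fit of percent inhibition, read as ADP-Glo luminescence. Reactions: 5 nM CDK6, 1 μM retinoblastoma, 25 μM ATP, test compound 0.1–200 nM final, 2 h at room temperature.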

A further experiment concerns the target T3, FMS kinase (Homo sapiens, UniProt P07333).
T3 construct: purchased Invitrogen (Life Technologies)
Description: LanthaScreen Eu Kinase Binding Assay (ATP, fluorescent-PolyGT substrate). Format: biochemical. In short, it runs like this: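 TR-FRET read (ex 340, em 495 and 520 nm) after EDTA/Tb-labelled antibody stop; IC50 by four-parameter logistic fit of percent inhibition. Reaction: 1.25 nM FMS, 10 min compound preincubation (3-fold series), then 1 h at room temperature with 10 μM ATP and 200 nM fluorescent PolyGT.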
On the technique in general: TR-FRET usually uses a lanthanide donor and a delayed reading to cut background.

The target in a further experiment is T4, PI3Kδ kinase (Homo sapiens, UniProt O00329).
T4 construct: purchased Reaction Biology Corporation (assay service)
T4 sequence (O00329 whole entry): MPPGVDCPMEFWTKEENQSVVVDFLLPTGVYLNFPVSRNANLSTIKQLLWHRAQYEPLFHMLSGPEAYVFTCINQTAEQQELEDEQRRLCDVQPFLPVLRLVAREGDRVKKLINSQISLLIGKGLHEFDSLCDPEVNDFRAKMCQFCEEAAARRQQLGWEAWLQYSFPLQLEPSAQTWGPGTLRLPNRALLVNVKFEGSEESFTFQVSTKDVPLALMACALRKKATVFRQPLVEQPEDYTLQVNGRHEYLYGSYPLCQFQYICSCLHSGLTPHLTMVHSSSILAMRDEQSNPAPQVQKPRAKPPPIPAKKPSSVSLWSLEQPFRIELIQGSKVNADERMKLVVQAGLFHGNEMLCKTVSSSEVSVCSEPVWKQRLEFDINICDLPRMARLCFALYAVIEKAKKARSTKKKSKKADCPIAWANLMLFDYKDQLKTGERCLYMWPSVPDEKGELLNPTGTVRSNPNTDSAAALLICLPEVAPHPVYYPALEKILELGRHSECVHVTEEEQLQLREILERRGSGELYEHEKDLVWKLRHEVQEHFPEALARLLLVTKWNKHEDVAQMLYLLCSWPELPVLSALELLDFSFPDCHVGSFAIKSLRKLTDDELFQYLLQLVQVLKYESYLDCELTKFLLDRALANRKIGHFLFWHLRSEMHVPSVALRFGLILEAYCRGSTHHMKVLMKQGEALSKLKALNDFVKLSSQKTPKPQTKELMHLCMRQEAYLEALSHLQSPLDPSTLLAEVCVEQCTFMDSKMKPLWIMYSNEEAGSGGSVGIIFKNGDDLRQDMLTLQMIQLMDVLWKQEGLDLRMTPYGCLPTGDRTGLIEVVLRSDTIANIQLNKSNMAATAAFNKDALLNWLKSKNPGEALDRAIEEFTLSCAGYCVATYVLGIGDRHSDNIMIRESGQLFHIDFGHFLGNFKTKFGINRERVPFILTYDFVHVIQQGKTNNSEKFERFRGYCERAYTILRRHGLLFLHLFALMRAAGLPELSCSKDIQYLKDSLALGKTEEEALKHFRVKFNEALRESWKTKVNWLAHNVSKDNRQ
T4 sequence (P27986 whole entry partner): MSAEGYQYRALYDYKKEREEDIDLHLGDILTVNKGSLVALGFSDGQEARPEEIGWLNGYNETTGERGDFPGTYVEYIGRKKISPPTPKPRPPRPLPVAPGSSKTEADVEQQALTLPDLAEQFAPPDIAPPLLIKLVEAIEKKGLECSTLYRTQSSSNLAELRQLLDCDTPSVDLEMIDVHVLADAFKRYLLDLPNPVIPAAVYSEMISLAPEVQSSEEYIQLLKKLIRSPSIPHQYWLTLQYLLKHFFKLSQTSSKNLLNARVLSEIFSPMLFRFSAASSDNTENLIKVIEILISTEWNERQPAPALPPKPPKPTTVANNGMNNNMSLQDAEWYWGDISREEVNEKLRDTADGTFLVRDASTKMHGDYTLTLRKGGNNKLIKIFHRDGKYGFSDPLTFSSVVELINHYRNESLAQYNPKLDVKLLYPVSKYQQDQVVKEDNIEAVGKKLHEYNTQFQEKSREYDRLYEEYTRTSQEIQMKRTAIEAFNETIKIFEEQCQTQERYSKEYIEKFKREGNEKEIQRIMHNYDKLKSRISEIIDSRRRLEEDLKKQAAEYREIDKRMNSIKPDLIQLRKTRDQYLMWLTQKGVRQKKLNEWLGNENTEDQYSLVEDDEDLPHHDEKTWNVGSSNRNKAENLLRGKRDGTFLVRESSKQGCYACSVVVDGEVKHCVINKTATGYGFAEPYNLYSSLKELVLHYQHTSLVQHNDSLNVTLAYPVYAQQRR
Description: PI3Kδ kinase assay (ADP-Glo, Reaction Biology). Type of experiment: biochemical. Here is the method:
IC50 values of compounds against the PI3Kδ kinase were determined by an assay performed by Reaction Biology Corporation (Malvern, Pa.). Briefly, this assay was conducted in buffer (Tris-HCl 40 mM (pH7.5), Orthovanadate 3 mM, MgCl2 20 mM, DTT 2 mM, CHAPS 0.05%, DMSO 1%). PI3Kδ kinase was added to the reaction solution and mixed gently. The test compounds in 100% DMSO (at specific solutions) were mixed with the kinase reaction mixture to achieve the final compounds at pre-defined concentrations (e.g., range −0.5 nM to 100 μM) by Acoustic technology (Echo550; nanoliter range). After incubating for 10 min at room temp, ATP was added into the reaction mixture to initiate the reaction followed by a 30-min incubation at 30° C. After quenching the reaction with ADP-Glo reagent, the plates were incubated for 40 min. The Detection Mixture was added, and the plate was incubated for an additional 30 min. At the end of incubation, luminescence was measured. For data analysis, the luminescence was converted into μM ADP production based on ADP standard curves. The nonlinear regression to obtain the standard curve and IC50 values was performed using GraphPad Prism (GraphPad Software, Inc., San Diego, Calif.).

T2 sequence (Q00534 whole entry): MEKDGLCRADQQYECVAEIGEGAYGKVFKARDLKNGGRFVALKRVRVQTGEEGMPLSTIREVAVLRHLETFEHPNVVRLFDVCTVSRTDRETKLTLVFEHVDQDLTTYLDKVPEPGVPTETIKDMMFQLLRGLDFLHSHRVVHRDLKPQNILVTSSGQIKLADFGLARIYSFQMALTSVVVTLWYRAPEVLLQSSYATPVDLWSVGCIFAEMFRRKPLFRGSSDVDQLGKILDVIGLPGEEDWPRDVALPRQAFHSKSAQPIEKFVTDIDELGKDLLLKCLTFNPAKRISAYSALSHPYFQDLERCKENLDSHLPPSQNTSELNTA
T2 sequence (P24385 whole entry partner): as the sequence (P24385 whole entry partner) above
T3 sequence (P07333 20-972): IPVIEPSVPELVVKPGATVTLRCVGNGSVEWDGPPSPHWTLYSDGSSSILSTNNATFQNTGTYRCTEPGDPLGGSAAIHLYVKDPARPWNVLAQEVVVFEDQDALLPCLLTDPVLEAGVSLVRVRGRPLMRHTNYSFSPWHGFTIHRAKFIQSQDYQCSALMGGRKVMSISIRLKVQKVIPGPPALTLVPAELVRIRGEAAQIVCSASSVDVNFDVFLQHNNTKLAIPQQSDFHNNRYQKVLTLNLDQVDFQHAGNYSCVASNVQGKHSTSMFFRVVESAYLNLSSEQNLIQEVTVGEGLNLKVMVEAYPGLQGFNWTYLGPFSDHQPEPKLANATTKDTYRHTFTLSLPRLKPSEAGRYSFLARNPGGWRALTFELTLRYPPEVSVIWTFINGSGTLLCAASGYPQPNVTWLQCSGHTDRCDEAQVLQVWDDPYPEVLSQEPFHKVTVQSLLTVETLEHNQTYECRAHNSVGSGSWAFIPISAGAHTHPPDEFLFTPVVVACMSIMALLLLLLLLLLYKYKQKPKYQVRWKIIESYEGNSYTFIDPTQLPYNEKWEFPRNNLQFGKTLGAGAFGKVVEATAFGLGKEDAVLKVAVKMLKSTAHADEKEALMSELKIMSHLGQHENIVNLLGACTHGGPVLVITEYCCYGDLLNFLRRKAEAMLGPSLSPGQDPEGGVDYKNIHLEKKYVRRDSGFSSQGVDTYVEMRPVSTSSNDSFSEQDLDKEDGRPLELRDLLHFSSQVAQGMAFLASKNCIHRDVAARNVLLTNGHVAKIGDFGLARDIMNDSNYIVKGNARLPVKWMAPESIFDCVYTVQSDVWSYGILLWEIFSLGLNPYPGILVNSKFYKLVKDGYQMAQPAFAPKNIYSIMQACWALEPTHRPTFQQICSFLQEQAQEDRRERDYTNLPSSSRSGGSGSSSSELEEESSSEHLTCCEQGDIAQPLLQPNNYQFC

With `CN(C)CC(=O)N1CCc2ccc(Nc3ncc4cc(C#N)c(=O)n(C5CCCC5)c4n3)cc2C1` [Compound No. 53, 8-cyclopentyl-2-((2-(dimethylglycyl)-1,2,3,4-tetrahydroisoquinolin-7-yl)amino)-7-oxo-7,8-dihydropyrido[2,3-d]pyrimidine-6-carbonitrile], the IC50 stood at 190 nM in experiment [1]; 1280 nM in experiment [2]; 2.5 nM on CDK4; 4 nM at CDK6; 9.5 nM on FMS kinase; 249 nM at PI3Kδ kinase.

As to `N#Cc1cc2cnc(Nc3ccc(N4CCNCC4=O)c(F)c3)nc2n(C2CCCC2)c1=O` [Compound No. 57, 8-cyclopentyl-2-((3-fluoro-4-(2-oxopiperazin-1-yl)phenyl)amino)-7-oxo-7,8-dihydropyrido[2,3-d]pyrimidine-6-carbonitrile], the IC50 in experiment [1] worked out at 1480 nM; in experiment [2], 5180 nM; at CDK4, 6.5 nM; on CDK6 it was 12 nM; on FMS kinase it was 1 nM; against PI3Kδ kinase, 249 nM.

Turning to `CN(C)CC(=O)N1CCc2cc(Nc3ncc4cc(C#N)c(=O)n(C5CCCC5)c4n3)ccc2C1` [Compound No. 54, 8-cyclopentyl-2-((2-(dimethylglycyl)-1,2,3,4-tetrahydroisoquinolin-6-yl)amino)-7-oxo-7,8-dihydropyrido[2,3-d]pyrimidine-6-carbonitrile], the IC50 in experiment [1] is 150 nM; in experiment [2], 1100 nM; at CDK4 it was 3 nM; on CDK6, 3.5 nM; at FMS kinase, 7 nM; at PI3Kδ kinase, 248 nM.

Regarding `CN1CCN(c2ccc(Nc3ncc4cc(C#N)c(=O)n(C5CCCC5)c4n3)cc2CO)CC1` [Compound No. 10, 8-cyclopentyl-2-((3-(hydroxymethyl)-4-(4-methylpiperazin-1-yl)phenyl)amino)-7-oxo-7,8-dihydropyrido[2,3-d]pyrimidine-6-carbonitrile], the IC50 in experiment [1] is 90 nM; in experiment [2], 1640 nM; on CDK4, 1 nM; at CDK6, 1 nM; at FMS kinase, below 1 nM; against PI3Kδ kinase, 310 nM.

`CN1CCC(c2ccc(Nc3ncc4cc(C#N)c(=O)n(C5CCCC5)c4n3)cc2)CC1` [Compound No. 40, 8-cyclopentyl-2-((4-(1-methylpiperidin-4-yl)phenyl)amino)-7-oxo-7,8-dihydropyrido[2,3-d]pyrimidine-6-carbonitrile]: the IC50 was 133 nM in experiment [1]; 2800 nM in experiment [2]; above 200 nM at CDK4; 76 nM on CDK6; 1 nM on FMS kinase; 416 nM against PI3Kδ kinase.

With `CN1CCN(c2ccc(Nc3ncc4cc(C#N)c(=O)n(Cc5ccccc5)c4n3)cc2)CC1` [Compound No. 32, 8-benzyl-2-((4-(4-methylpiperazin-1-yl)phenyl)amino)-7-oxo-7,8-dihydropyrido[2,3-d]pyrimidine-6-carbonitrile], the IC50 in experiment [1] is 2010 nM; on CDK4 it was 1 nM; at CDK6, 7 nM; at FMS kinase, 3.5 nM; at PI3Kδ kinase, 251 nM.

`CN(C)C1Cc2ccc(Nc3ncc4cc(C#N)c(=O)n(C5CCCC5)c4n3)cc2C1` (stereo not shown) [Compound No. 47, 8-cyclopentyl-2-((2-(dimethylamino)-2,3-dihydro-1H-inden-5-yl)amino)-7-oxo-7,8-dihydropyrido[2,3-d]pyrimidine-6-carbonitrile]: the IC50 is 345 nM in experiment [1]; 9.5 nM at CDK4; 4 nM at CDK6; 2.5 nM at FMS kinase; 345 nM against PI3Kδ kinase.

As for `N#Cc1cc2cnc(Nc3ccc(C4CCNCC4)cc3)nc2n(C2CCCC2)c1=O` [Compound No. 37, 8-cyclopentyl-7-oxo-2-((4-(piperidin-4-yl)phenyl)amino)-7,8-dihydropyrido[2,3-d]pyrimidine-6-carbonitrile], the IC50 in experiment [1] was 353 nM; in experiment [2], 2220 nM; at CDK4, 6.5 nM; at CDK6 it was 2.5 nM; on FMS kinase, 5.8 nM; on PI3Kδ kinase it was 64 nM.

For `CC(C)N1CCc2cc(Nc3ncc4cc(C#N)c(=O)n(C5CCCC5)c4n3)ccc2C1` [Compound No. 45, 8-cyclopentyl-2-((2-isopropyl-1,2,3,4-tetrahydroisoquinolin-6-yl)amino)-7-oxo-7,8-dihydropyrido[2,3-d]pyrimidine-6-carbonitrile], the IC50 in experiment [1] came to 428 nM; on CDK4, 4.5 nM; at CDK6 it was 19 nM; on FMS kinase, 2 nM; against PI3Kδ kinase, 490 nM.

As for `N#Cc1cc2cnc(Nc3ccc(C4CCNCC4)c(F)c3)nc2n(C2CCCC2)c1=O` [Compound No. 43, 8-cyclopentyl-2-((3-fluoro-4-(piperidin-4-yl)phenyl)amino)-7-oxo-7,8-dihydropyrido[2,3-d]pyrimidine-6-carbonitrile], the IC50 in experiment [1] was found to be 180 nM; on CDK4, 5 nM; on CDK6, 3 nM; at FMS kinase, 1.5 nM; against PI3Kδ kinase it was 180 nM.

On to `CN1CCC(c2ccc(Nc3ncc4cc(C#N)c(=O)n(C5CCCC5)c4n3)cc2F)CC1` [Compound No. 46, 8-cyclopentyl-2-((3-fluoro-4-(1-methylpiperidin-4-yl)phenyl)amino)-7-oxo-7,8-dihydropyrido[2,3-d]pyrimidine-6-carbonitrile], for which the IC50 in experiment [1] amounted to 275 nM; on CDK4, 15 nM; at CDK6, 5 nM; at FMS kinase, 2.5 nM; against PI3Kδ kinase it was 658 nM.

Turning to `CC(c1ccccc1)n1c(=O)c(C#N)cc2cnc(Nc3ccc(N4CCN(C)CC4)cc3)nc21` (stereo not shown) [Compound No. 35, 2-((4-(4-methylpiperazin-1-yl)phenyl)amino)-7-oxo-8-(1-phenylethyl)-7,8-dihydropyrido[2,3-d]pyrimidine-6-carbonitrile], the IC50 in experiment [1] was 3880 nM; at CDK4, above 200 nM; at CDK6, 91 nM; on FMS kinase, 7 nM; on PI3Kδ kinase, 738 nM.

`CN1CCc2cc(Nc3ncc4cc(C#N)c(=O)n(C5CCCC5)c4n3)ccc2C1` [Compound No. 38, 8-cyclopentyl-2-((2-methyl-1,2,3,4-tetrahydroisoquinolin-6-yl)amino)-7-oxo-7,8-dihydropyrido[2,3-d]pyrimidine-6-carbonitrile]: the IC50 in experiment [1] was determined as 452 nM; on CDK4, 1.5 nM; on CDK6, 1 nM; on FMS kinase, 5.5 nM; against PI3Kδ kinase, 384 nM.

Take `CN1CCc2ccc(Nc3ncc4cc(C#N)c(=O)n(C5CCCC5)c4n3)cc2C1` [Compound No. 34, 8-cyclopentyl-2-((2-methyl-1,2,3,4-tetrahydroisoquinolin-7-yl)amino)-7-oxo-7,8-dihydropyrido[2,3-d]pyrimidine-6-carbonitrile]: the IC50 was 315 nM in experiment [1]; 6.5 nM at CDK4; 9 nM at CDK6; 5.2 nM at FMS kinase; 1230 nM on PI3Kδ kinase.

For the origin of these results see US20220273659A1, “HETEROCYCLIC COMPOUNDS AS KINASE INHIBITORS” (NUVATION BIO INC., priority 2019, published 2022).
